Experimental data from patent publication US4765972A (priority 1986, dated 1988).

What was measured:
[1] = tested on: 150-180 kDa surface membrane glycoprotein (gp150-180); experiment: Photoaffinity labelling of purified plasma membranes with ^125 I-NASV; assay type: binding, Chinese hamster; settings: for increase of radiolabelling of the 150-180 kDa component versus drug-sensitive parental cells: plasma membranes
Protocol: (§1) Cell lines were cultured as described by Peterson et al., Cancer Res. 43, 222-228 (1983) and by Meyers et al., J. Cell. Biol. 100, 588-597 (1985). Vincristine-resistant (DC-3F/VCRd-5L, 2750-fold resistant) and actinomycin D-resistant (DC=3F/ADX, 2450-fold resistant) variants were selected from Chinese hamster lung (DC-3F) cells as described in the above-cited articles. The drug-sensitive revertant (DC-3F/ADX-U, 30-fold resistant to actinomycin D) was obtained from DC-3F/ADX cells grown in the absence of drugs. The resistant cells expressed a typical multidrug-resistant phenotype as typified by cross-resistance to a number of unrelated natural product compounds. Whole cell particulate fractions were prepared by the sonication of drug-sensitive or drug-resistant cells in 50 mM potassium phosphate buffer (pH 7.4), followed by centrifugation at 100,000×g for one hour. The particulate pellet was washed by resuspending in the same buffer, and the whole cell particulate fraction was obtained by a second centrifugation. Purified plasma membranes were prepared by sucrose density gradient centrifugation as described in Peterson et al in J. Supramolecular Structure 9, 289-298 (1978). Protein concentrations were determined by the procedure of Lowry et al., J. Biol. Chem., 193, 265-275 (1951).
Photolabelling of membrane samples (50 micrograms protein) was performed in 40 nM potassium phosphate buffer (pH 7.0) containing 4% Me2 SO and 50 nM of either ^3 H-NABV (0.1 microCi) or ^125 I-NASV (0.2 microCi) in a final volume of 0.050 ml. […] SDS-PAGE of 5-15% gradient gels containing 4.5 M urea, fluorography, and autoradiography were performed as described by Felsted et al. in Blood 66, 606-613 (1985). The quantitation of radiolabelling was accomplished by cutting appropriate areas from the gel and counting the pieces in a gamma counter.
A plasma membrane localization for the 150-180 kDa component was established by photoaffinity labelling sucrose density gradient purified plasma membranes from drug-sensitive and drug-resistant cells with ^3 H-NABV. […] These membranes, as well as membranes from another multidrug-resistant variant (DC-3F/ADX) originally selected for resistance to actinomycin D and from a revertant (DC-3F/ADX-U) obtained from the DC-3F/ADX variant were also photoaffinity labelled with ^125 I-NASV. […] In contrast, radiolabelling of the 150-180 kDa component in the DC-3F/ADX-U revertant cells was increased by only about 15-fold. […] In other studies, a number of drug-sensitive cell lines have been shown by immunoblottings to have barely detectable levels of analogous 150-180 kDa surface membrane glycoproteins compared to the corresponding multidrug-resistant variants. […]

[2] = tested on: 54.3 kDa polypeptide (tubulin subunit); experiment: Photolabelling of calf brain homogenate with ^3 H-NABV, 54.3 kDa polypeptide; assay type: binding
Protocol: (§2) Tissue homogenate high speed supernatant and pellet fractions were obtained by homogenizing 1 gram of calf brain in 10 ml volumes of 0.05 M potassium phosphate buffer, pH 7.4, for one minute with a Model PCU Polytron homogenizer with a PT-10-ST probe operated at 50% maximum power (Brinkmann Instruments, Westbury, NY). The brain tissue homogenate was collected after filtering through one layer of cheesecloth. Brain tissue high speed supernatant fractions were prepared by centrifuging the homogenates at 100,000×g for 60 minutes at 4° C. The resulting pellet was washed twice with five times its original volume of buffer, and recentrifuged as described. […] and supernatant fractions were stored in small aliquots in liquid nitrogen and thawed only once.
(§3) The standard photolabelling mixture used contained 50 nM ^3 H-NABV (50.6 Ci/mmol), 4% dimethylsulfoxide, […] potassium phosphate buffer, pH 7.0, and 2 mg/ml of tissue homogenate or high speed pellet or supernatant fractions in a final volume of 0.05 ml in polyvinylchloride V-microtiter wells (Dynatech Labs, Inc., Alexandria, VA) in a 25° C. water bath. Photolabelling mixtures were incubated for 15 minutes at 25° C. before photolysis. Photoactivation was performed for 10-20 minutes with a UV light equipped with two 15 W self-filtering 302 nm lamps (Model xx-15, Ultra-Violet Products, Inc., San Gabriel, CA), placed 3.4 cm above the photolabelling mixture. […] Photoactivated samples were immediately processed for SDS-PAGE or frozen at -70° C.
(§4) Equal volumes of SDS sample buffer were added to photolabelled mixtures in microliter wells. The mixtures were transferred to 0.5 ml centrifuge tubes. After heating for five minutes at 100° C. on a heating block, the mixtures were cooled on ice and sonicated for five seconds, cooled, and 0.08 ml aliquots of the mixtures were applied to separate wells of a 1.5 mm thick polyacrylamide slab gel.
(§5) Electrophoresis was performed as described by Laemmli in Nature (Lond.) 227, 680-685 (1970) with a linear polyacrylamide gradient from 9.7% acrylamide, 0.26% bis-acrylamide and 10% glycerol, to 16.6% acrylamide, 0.44% bis-acrylamide, and 17% glycerol using a Bio-Rad slab gel apparatus (Model 220, Richmond, CA) at 8 mA/gel for sixteen hours. Following fixation and staining of the gel, in 0.25% Coomassie brilliant blue, 45% methanol and 10% acetic acid, the lanes of stained polypeptide corresponding to each sample slot were cut and sliced into 1.0 mm slices. Each slice was incubated with 0.3 ml 30% H2 O2 in a closed scintillation vial at 100° C. for one hour to solubilize the gel slice, with radioactivity subsequently quantitated. The molecular weights of radioactive macromolecules were estimated by their mobilities relative to standard proteins of known molecular weights. (Bio-Rad, Richmone, CA). The radioactivity of photolabelled components was quantitated in triplicate by adding the dpm in each 1 mm gel slice through the radioactive peak.
(§6) The specific photolabelling was obtained by subtracting the nonspecific linear curve from the mixed biphasic profile.

21.5 kDa polypeptide = experiment: Photolabelling of calf brain homogenate with ^3 H-NABV, 21.5 kDa polypeptide; assay type: binding
Protocol: as §2, §3, §4, §5, §6

[3] = In-vitro NABV metabolism in calf brain homogenates; assay type: in vitro ADME; settings: dark, 30-60 minutes at 0°, 25°, and 37° C.
Protocol: In-vitro NABV Metabolism Calf brain homogenates (100 micrograms protein) were incubated with 3H-NABV under standard photolabelling conditions for 30 minutes at 25° C. in the absence of UV light. The mixture was then extracted with 1 ml chloroform and analyzed for radioactive materials in the organic extract by silica gel thin layer chromatography using Solvent I.
This was confirmed by incubating ^3 H-NABV with brain homogenates in the dark for 30-60 minutes at 0°, 25°, and 37° C., subsequently extracting the mixtures with chloroform, and analyzing for radioactive metabolites by silica gel thin layer chromatography and high pressure liquid chromatography. A single radioactive spot corresponded to the Rf of NABV and accounted for more than 98% of the recovered radioactivity.

tubulin [4] = experiment: Tubulin-dependent GTP hydrolysis; assay type: biochemical; settings: both drugs at similar concentrations
[5] = tested on: P388 murine leukemic cells; experiment: Growth inhibition of exponentially growing P388 cells; assay type: cell-based; settings: Mus musculus; 72 hours exposure; exponentially growing P388 cells; read-out: IC50
From the text: Thus, NABV is ideal for probing intracellular Vinca alkaloid interactions because it retains the known biochemical and pharmacological properties of this class of drugs.

microtubule = experiment: In vitro microtubule assembly; assay type: biochemical; settings: both drugs at similar concentrations
tubulin [6] = experiment: Tubulin aggregation; assay type: biochemical; settings: both drugs at similar concentrations
[7] = tested on: 150-180 kDa surface membrane glycoprotein (gp150-180); experiment: Immunoprecipitation of ^125 I-NASV photolabelled, detergent solubilized membranes with antibody specific for gp150-180; assay type: binding, Chinese hamster; settings: DC-3F/VCRd-5L membranes, vinblastine
Protocol: Immunoprecipitations were performed by extracting membranes (20 micrograms protein) for fifteen minutes at 4° C. with 100 microliters of 50 mM Tris-HCl buffer (pH 7.0) containing 150 mM NaCl, 1% Triton X-100, 1% sodium deoxycholate, 0.1% SDS, 1 mM ethylenediamine tetraacetic acid, 1 mM phenylmethylsulfonylfluoride, and 10 mg/ml Trayslol (Boehringer Mannheim, Indianapolis, IN). The mixtures were then incubated for one hour at 5° C. with 10 microliters rabbit polyclonal antibody specific for multidrug-resistant 150-180 kDa surface membrane glycoprotein (gp150-180).Immune complexe were obtained by incubating the mixture with Protein A-Sepharose (Pharmacia, Piscataway, NJ) for one hour at 5° C. and recovering the beads after washing four times. […]
(§7) Photolabelling of membrane samples (50 micrograms protein) was performed in 40 nM potassium phosphate buffer (pH 7.0) containing 4% Me2 SO and 50 nM of either ^3 H-NABV (0.1 microCi) or ^125 I-NASV (0.2 microCi) in a final volume of 0.050 ml. […] The quantitation of radiolabelling was accomplished by cutting appropriate areas from the gel and counting the pieces in a gamma counter.
The radiolabelled 150-180 kDa polypeptide was immunoprecipitated only from membrane extracts of drug-resistant cells. No radioactivity was precipitated when nonimmune serum was used in place of the specific antibody. […]

[8] = tested on: 150-180 kDa surface membrane glycoprotein (gp150-180); experiment: Photoaffinity labelling of cell particulate fractions / plasma membranes with ^3 H-NABV, competition by vinblastine; assay type: binding, Chinese hamster
Protocol: as §1, with “The particulate pellet was washed by resuspending in the same buffer, and the whole cell particulate fraction was obtained by a second centrifugation. Purified plasma membranes were prepared by sucrose density gradient centrifugation as described in Peterson et al in J. Supramolecular Structure 9, 289-298 (1978).” left out
as §7, with “counter. […]” for “counter.”

[9] = 0.44 micromoles ^3 H-NABV, competitor 1-22 micromoles
[10] = corrected for nonspecific labelling, apparent, not a true equilibrium constant, read-out: half maximal saturation photolabelling
[11] = saturation photolabelling experiments

Compound: N-(p-azido-3-[^125 I-]-salicyl-N'-beta-aminoethylvindesine [^125 I-NASV]
- increase of radiolabelling of the 150-180 kDa component versus drug-sensitive parental cells ([1]; DC-3F/ADX-U revertant cells): about 15 fold
- increase of radiolabelling of the 150-180 kDa component versus drug-sensitive parental cells ([1]; drug-resistant variants (DC-3F/VCRd-5L, DC-3F/ADX)): up to 150 fold

Compound: COc1cccc2c1C(=O)c1c(O)c3c(c(O)c1C2=O)C[C@@](O)(C(C)=O)C[C@@H]3O[C@H]1C[C@H](N)[C@H](O)[C@H](C)O1 [daunorubicin]
- effect of increasing concentrations of competitor on photolabelling [2, 9]: negligible effects
- effect of increasing concentrations of competitor on photolabelling (21.5 kDa polypeptide; [9]): negligible effects

Compound: N-(p-azido-[3,4-^3 H]benzoyl)-N'-beta-aminoethylvindesine [^3 H-NABV]
- maximum saturable incorporation [2]: 5.5 pmol ^3 H-NABV bound/mg of calf brain homogenate protein
- Kd [2, 10]: 208 nM
- percent of total labelling ascribed to nonspecific labelling [2, 11]: 48%
- metabolism under standard photolabelling conditions [3]: no appreciable metabolism
- recovered radioactivity in the single spot corresponding to the Rf of NABV ([3]; TLC and HPLC): more than 98%
- maximum saturable incorporation (21.5 kDa polypeptide): 0.9 pmol ^3 H-NABV bound/mg of calf brain homogenate protein
- Kd (21.5 kDa polypeptide; [10]): 95 nM
- percent of total labelling ascribed to nonspecific labelling (21.5 kDa polypeptide; [11]): 51%

Compound: Nc1ccc(C(=O)O)cc1 [p-aminobenzoic acid]
- reduction of photolabelling by nitrene scavenger ([2]; 100-fold excess over [^3 H]-NABV): 25%
- further reduction of photolabelling by nitrene scavenger ([2]; up to 10^4 -fold molar excess): no significant further reduction
- effect of nitrene scavenger on photolabelling (21.5 kDa polypeptide; 10^3 -fold molar excess): no significant effect
- reduction of photolabelling by nitrene scavenger (21.5 kDa polypeptide; 10^4 -fold molar excess): 30%

Compound: CC[C@]1(O)C[C@@H]2CN(CCc3c([nH]c4ccccc34)[C@@](C(=O)OC)(c3cc4c(cc3OC)N(C)[C@H]3[C@@](O)(C(=O)OC)[C@H](OC(C)=O)[C@]5(CC)C=CCN6CC[C@]43[C@@H]65)C2)C1 [vinblastine]
- reduction of radiolabelling of the 150-180 kDa component ([1]; drug-resistant variants, ^125 I-NASV, 10 micromoles vinblastine): 80-90%
- radiolabelling of the 150-180 kDa component in the presence of vinblastine ([1]; parental and revertant cells, ^125 I-NASV, 10 micromoles vinblastine): completely absent
- effect on tubulin-dependent GTP hydrolysis (tubulin [4]): inhibit tubulin-dependent GTP hydrolysis
- IC50 [5]: 0.6 nM
- effect on in vitro microtubule assembly (microtubule): inhibit in vitro microtubule assembly
- effect on tubulin aggregation (tubulin [6]): induce tubulin aggregation
- reduction of radiolabel in the immunoprecipitate [7]: 96%
- reduction of radiolabelling of the 150-180 kDa component ([8]; sucrose density gradient purified plasma membranes, 10 micromole vinblastine): 59%
- radiolabelling of the 150-180 kDa component in the presence of vinblastine ([8]; whole cell particulate fractions, DC-3F/VCRd-5L, 10 micromoles vinblastine): substantially reduced
